Settings: not given

Row | Compound | boiling point [°C] | melting point [°C] | ready biodegradability | log10 vapour pressure (mmHg) | log10 biodegradation half-life (days) | log10 Koc (L/kg) | log10 Henry constant (atm·m³/mol) | log10 Koa
1 | Cc1cc([N+](=O)[O-])ccc1Cl | 249 | 42.5 |  |  |  |  |  | 
2 | Cc1cc(C)cc(-c2ccccc2)c1 | 274 | 22.5 |  |  |  |  |  | 
3 | ClCc1ccccc1Cl | 217 | -17 | not readily biodegradable |  |  |  |  | 
4 | CN(C)c1ccc(/N=N/c2ccccc2C(=O)O)cc1 |  | 183 |  |  |  |  |  | 
5 | CS(=O)(=O)c1ccc(C(=O)C2C(=O)CCCC2=O)c(Cl)c1 |  | 139 |  | -7.43 |  |  |  | 
6 | C/C(=N\C#N)N(C)Cc1ccc(Cl)nc1 |  | 98.9 |  |  |  |  |  | 
7 | O=[N+]([O-])c1ccccc1Sc1ccccc1 |  | 82 |  |  |  |  |  | 
8 | CC(=O)Nc1ccc(O)cc1 |  | 170 | readily biodegradable |  |  |  |  | 
9 | CCC1(CC)COC(=O)NC1=O |  | 97.5 |  |  |  |  |  | 
10 | C[C@H](NC(=O)c1ccccc1)C(=O)O (racemic) |  | 166 |  |  |  |  |  | 
11 | CC(C)(C)CC(=O)Cl | 130 |  |  |  |  |  |  | 
12 | CP(=O)(c1ccccc1)c1ccccc1 |  | 113 |  |  |  |  |  | 
13 | CC[C@H]1O[C@]2(CC[C@@H]1C)C[C@@H]1C[C@@H](CC=C(C)C[C@@H](C)C=CC=C3CO[C@@H]4[C@H](O)C(C)=C[C@@H](C(=O)O1)[C@]34O)O2 |  | 214 |  |  |  |  |  | 
14 | CCOC(=O)CCN(Cc1ccccc1)SN(C)C(=O)O/N=C(/C)SC |  | 47 |  | -7.46 |  |  |  | 
15 | CCCCCCCCC#CCCCCCCCC(=O)O |  | 48 |  |  |  |  |  | 
16 | OC[C@H]1O[C@@H](n2cnc3c2N=CNC[C@H]3O)C[C@@H]1O |  | 220 |  |  |  |  |  | 
17 | CC(O)CCCCO (stereo not given) | 237 |  |  |  |  |  |  | 
18 | O=[N+]([O-])c1ccc(Oc2ccc(N=C=S)cc2)cc1 |  | 110 |  |  |  |  |  | 
19 | CCOC(=O)c1cc2ccccc2o1 | 276 | 30.5 |  |  |  |  |  | 
20 | C/C=C/C=C/CCCCCCCO |  | 32 |  | -3.29 |  |  |  | 
21 | O=C(O)CCCCCCCCCCO |  | 65.5 |  |  |  |  |  | 
22 | CCCCC(CC)COP(=O)(O)OCC(CC)CCCC (stereo not given) |  | -50 | not readily biodegradable |  |  |  |  | 
23 | NC1=C(Cl)C(=O)c2ccccc2C1=O |  | 199 |  | -6.35 |  |  |  | 
24 | CCCCOC(=O)CCC(=O)OCCCC | 274 | -29.2 |  |  |  |  |  | 
25 | CC(C)(C)c1cc(N=Nc2ccccc2[N+](=O)[O-])c(O)c(C(C)(C)C)c1 |  |  | not readily biodegradable |  |  |  |  | 
26 | CCCCCC(=NO)C(C)=O |  | 59 |  |  |  |  |  | 

Row | Compound | boiling point [°C] | melting point [°C] | ready biodegradability | log10 vapour pressure (mmHg) | log10 biodegradation half-life (days) | log10 Koc (L/kg) | log10 Henry constant (atm·m³/mol) | log10 Koa
27 | CC(CCC(=O)O)c1ccccc1 (stereo not given) |  | 13 |  |  |  |  |  | 
28 | COC(=O)C1=CCCN(C)C1 | 209 |  |  | -1.1 |  |  |  | 
29 | CC1CC(C)C(C)C1 (stereo not given) | 117 | -132 |  |  |  |  |  | 
30 | COC(=O)[C@@H](N)Cc1ccc(O)cc1 |  | 137 |  |  |  |  |  | 
31 | CCC(=O)CC(C)=O | 160 |  |  |  |  |  |  | 
32 | COP(=S)(OC)SCC(=O)N(c1ccc(Cl)cc1)C(C)C |  | 51 |  |  |  |  |  | 
33 | O=C(OCC(COC(=O)c1ccccc1)OC(=O)c1ccccc1)c1ccccc1 |  | 76 |  |  |  |  |  | 
34 | CCCCCCCCCCCCS | 274 | -8 |  | -2.07 |  |  |  | 
35 | CCC(C)(C)C(C)C | 115 | -101 |  | 1.43 | 1.72 |  |  | 
36 | C=C[C@@H]1C2=CCOC(=O)C2=CO[C@H]1O[C@@H]1O[C@H](CO)[C@@H](O)[C@H](O)[C@H]1O |  | 191 |  |  |  |  |  | 
37 | O=[N+]([O-])C(Br)(Br)Br |  | 10 |  |  |  |  |  | 
38 | CC(C)/N=c1/cc2n(-c3ccc(Cl)cc3)c3ccccc3nc-2cc1Nc1ccc(Cl)cc1 |  | 211 |  |  |  |  |  | 
39 | Cc1nonc1C | 156 | -7 |  |  |  |  |  | 
40 | CNC(=O)Oc1ccccc1OC(CCl)OC (stereo not given) |  | 80 |  |  |  |  |  | 
41 | COC(=O)c1cccc(N)c1 |  | 39 |  |  |  |  |  | 
42 | CC12CCC(CC1)C2(C)C | 161 | 158 |  |  |  |  |  | 
43 | CCOB(OCC)OCC | 120 | -84.8 |  | 1.22 |  |  |  | 
44 | CC[C@H](C)CBr | 122 |  |  |  |  |  |  | 
45 | CC(C)(F)F | -0.4 | -105 |  |  |  |  |  | 
46 | CC(=O)Nc1ccc(OC(=O)c2ccccc2OC(C)=O)cc1 |  | 175 |  |  |  |  |  | 
47 | C=COCCC | 65 |  |  |  |  |  |  | 
48 | COC(=O)c1ccc(Cl)cc1[N+](=O)[O-] |  | 44 |  |  |  |  |  | 
49 | CCCC(C1CCCCC1)C1CCCCC1 | 293 | -10.5 |  |  |  |  |  | 
50 | Cc1c([N+](=O)[O-])cc(N)cc1[N+](=O)[O-] |  | 171 |  |  |  |  |  | 
51 | CCC(C)SC(C)CC (stereo not given) | 165 |  |  |  |  |  |  | 
52 | CC(=O)OCCc1ccccc1 | 233 | -31.1 |  | -1.5 |  | 1.89 |  | 

Row | Compound | boiling point [°C] | melting point [°C] | ready biodegradability | log10 vapour pressure (mmHg) | log10 biodegradation half-life (days) | log10 Koc (L/kg) | log10 Henry constant (atm·m³/mol) | log10 Koa
53 | CC(Oc1ccc(Oc2ncc(C(F)(F)F)cc2Cl)cc1)C(=O)O (stereo not given) |  | 108 |  |  |  |  |  | 
54 | CCCC(C)C(C)(C)C (stereo not given) | 134 |  |  | 1.06 |  |  |  | 
55 | O=C[C@H](O)CO |  | 145 |  |  |  |  |  | 
56 | CC1=C(C)C(=O)C(C)=C(C)C1=O |  | 112 |  |  |  |  |  | 
57 | O=C(O)CC[N+](=O)[O-] |  | 62 |  |  |  |  |  | 
58 | CCC(O)CO (stereo not given) | 194 |  | readily biodegradable | -1.3 |  |  |  | 
59 | C=CC(C)=O | 81.4 |  | not readily biodegradable |  |  |  | -4.33 | 
60 | O=C(NC(=O)c1c(F)cccc1F)Nc1ccc(Cl)cc1 |  | 239 |  | -9.05 |  | 3.83 |  | 
61 | O=S(=O)(Cl)c1ccc(Cl)cc1 |  | 51 |  |  |  |  |  | 
62 | CNC(=O)C(C)(C(C)C)C(C)C |  | 60 |  |  |  |  |  | 
63 | CCSC(=O)N(CC)C1CCCCC1 |  | 11.5 | not readily biodegradable | -2.7 |  | 2.54 |  | 
64 | COc1nc(NC(C)C)nc(NC(C)C)n1 |  | 91.5 |  | -5.64 |  | 2.6 |  | 
65 | CCC(C)c1ccccc1 (stereo not given) | 174 | -82.7 |  | 0.243 |  |  |  | 
66 | CC(C)CC(C)CC(C)C | 148 |  |  |  |  |  |  | 
67 | Cc1ccc(OP(=O)(Oc2ccc(C)cc2)Oc2ccc(C)cc2)cc1 |  | 77.5 |  |  |  |  |  | 
68 | CC(C)(Oc1ccc(Cl)cc1)C(=O)OCc1cccnc1 |  | 48.5 |  |  |  |  |  | 
69 | COC(=O)CBr | 132 |  |  |  |  |  |  | 
70 | C1CCCNCC1 | 138 |  |  | 0.908 |  |  | -5.21 | 
71 | CC(=O)c1cccc(N)c1 | 290 | 98.5 |  |  |  |  |  | 
72 | CC(C)OC(=O)C(C)C | 121 |  |  | 1.2 |  |  |  | 
73 | N#CC(Br)c1ccccc1 (stereo not given) |  | 29 |  |  |  |  |  | 
74 | CC(=O)NO |  | 90.5 |  |  |  |  |  | 
75 | CC1=C[C@H](O)CC(C)(C)[C@H]1/C=C/C(C)=C/C=C/C(C)=C/C=C/C=C(C)/C=C/C=C(C)/C=C/C1=C(C)C[C@@H](O)CC1(C)C |  | 196 |  |  |  |  |  | 
76 | Cc1ccc2c(-c3ccccc3)nc(=O)n(C(C)C)c2c1 |  | 138 |  |  |  |  |  | 
77 | Oc1ccc(Br)cc1Cl | 234 | 50.5 |  |  |  |  |  | 
78 | COC(=O)CCc1ccccc1 | 238 |  |  |  |  |  |  | 

Row | Compound | boiling point [°C] | melting point [°C] | ready biodegradability | log10 vapour pressure (mmHg) | log10 biodegradation half-life (days) | log10 Koc (L/kg) | log10 Henry constant (atm·m³/mol) | log10 Koa
79 | CCCC(=NOCC)C1=C(O)CC(CC(C)SCC)CC1=O (stereo not given) |  |  |  | -6.8 |  | 2 |  | 
80 | OCC(O)CI (stereo not given) |  | 48.5 |  |  |  |  |  | 
81 | CCCCCCCCCCCCCCCCCCOC(=O)CCSCCC(=O)OCCCCCCCCCCCCCCCCCC |  | 66 | readily biodegradable |  |  |  |  | 
82 | C#CC(O)c1ccccc1 (stereo not given) |  | 22 |  |  |  |  |  | 
83 | O[C@H]1[C@H](O)[C@H](O)OC[C@H]1O |  | 158 |  |  |  |  |  | 
84 | CCCC(C)(O)C(C)(C)C (stereo not given) | 170 |  |  |  |  |  |  | 
85 | CC(=O)Oc1ccc(C)cc1 | 212 |  |  |  |  |  |  | 
86 | CN1C(=O)C(C)(C2=CCCCC2)C(=O)N=C1O (stereo not given) |  | 146 |  |  |  |  |  | 
87 | O=C(O)c1cccc2cccnc12 |  | 187 |  |  |  |  |  | 
88 | CCCCCCCCCCCCN1CC(C(=O)O)CC1=O (stereo not given) |  | 39 |  |  |  |  |  | 
89 | C=C/C=C\CC1=C(C)[C@@H](OC(=O)[C@@H]2[C@@H](C=C(C)C)C2(C)C)CC1=O |  |  |  | -4.69 |  |  |  | 
90 | NS(=O)(=O)c1cc2c(cc1Cl)NCNS2(=O)=O |  | 274 |  |  |  |  |  | 
91 | CC(CCO)CCO |  |  | readily biodegradable |  |  |  |  | 
92 | N#CC=Cc1ccco1 |  | 38 |  |  |  |  |  | 
93 | Cn1cnc2ncnc-2c1N |  |  |  | -11.8 |  |  |  | 
94 | CCCCCC(=O)O | 205 | -3 | readily biodegradable | -1.36 |  | 1.46 | -6.12 | 
95 | CCN(CC)c1ccc(C=O)cc1 |  | 41 | not readily biodegradable |  |  |  |  | 
96 | C=C1C(=O)O[C@@H]2C=C(CO)CCC=C(C)C[C@H](OC(=O)C(=C)[C@@H](O)CO)[C@@H]12 |  | 143 |  |  |  |  |  | 
97 | Brc1ccc(Oc2ccccc2)c(Br)c1 |  |  |  |  |  |  |  | 8.37
98 | CS(=O)(=O)F | 124 |  |  | 1.04 |  |  |  | 
99 | CC(C)C1NC(=O)NC1=O (stereo not given) |  |  | not readily biodegradable |  |  |  |  | 
100 | COc1ccc2c(c1)CCCC2=O |  | 78 |  |  |  |  |  | 
101 | COCC(=O)N(c1c(C)cccc1C)N1CCOC1=O |  | 104 |  | -7.61 |  |  |  | 

Same assay, conditions: fish

Row | Compound | log10 BCF
102 | CCCCC(CC)COP(=O)(O)OCC(CC)CCCC (stereo not given) | 0.64
103 | O=C(NC(=O)c1c(F)cccc1F)Nc1ccc(Cl)cc1 | 2.2

— the OPERA property sets (Mansouri et al. 2018)
